Tests used:
skin = conditions: rat, in vivo, iv
Method: As a comparative control, Photofrin was administered under the same condition.
Four hours after the administration, a xenon lamp was irradiated on the shaved part (wavelength: 377-700 nm, power density: 30 mW/cm^2, irradiation area: 4 cm^2).

[1] = test system: choroidal neovascular (CNV) model; assay: Intraocular transfer of fluorescent-labelled PIC micelle in rat CNV model (fluorescence microscopy of frozen sections); format: in vivo, BN rat; conditions: intravenous, 400 μL of 5 mg/mL in physiological saline
Method: A diblock copolymer having polyethylene glycol (PEG) as a hydrophilic polymer chain, and polyaspartic acid (P(Asp)) as an anionic polymer chain within one molecule was dispersed in water, and mixed with FITC-labelled polylysine (FITC-P(Lys)) to prepare a core-shell type PIC micelle solution (5 mg/mL) having a core of a polylon complex (PIC) consisting of P(Asp) and FITC-P(Lys), and a shell of PEG.
After generally anesthetizing a BN rat by intramuscular administration of 1 mL/kg of a mixture of a 5% ketamine hydrochloride injection and a 2% xylazine hydrochloride injection (7:1), eye drops of a 0.5% tropicamide-0.5% phenylephrine hydrochloride ophthalmic solution were administered to render mydriasis. Then, photocoagulation was carried out with a semiconductor laser photocoagulator. Photocoagulation was carried out on six scattering positions per one eye in a posterior portion of the ocular fundus while focusing on retinal deep layer (coagulation conditions: spot size 75 μm, output 200 mW, coagulation time 0.05 sec) such that irradiation of large retinal vessels was avoided. […]
Following administration, the eyeball was removed after a predetermined time, and a frozen tissue section was prepared. Thereafter, leakage of the fluorescence to the choroidal neovascular site was qualitatively observed by a fluorescence microscope.

Substance | photosensitive erethism on the skin (skin) | toxicity (death of animal) [1]
Photofrin | photosensitive erethism was found | 
FITC-labelled polylysine [FITC-P(Lys)] |  | the animal died one hour after the administration due to its toxicity

Source: patent US20060110356A1, “Ophthalmic drug delivery system using polymer micelle” (NANOCARRIER KABUSHIKI KAISHA, priority 2003, published 2006)
